Literature values, collected in US20040131702A1, “Use of selenite or preparation containing selenite for treating wounds” (priority 2001, published 2004).
Several values for one entry are separate records, joined by “and”; a condition that tells them apart may be missing. Equal values may be shown once.

Tests used:
[1] = acid environment
animals = conditions: in vivo
human body = conditions: in vivo

Row | Compound | Standard redox potential E0 [1] | Selenium content of food above which animals exhibit symptoms of poisoning (animals) | Selenium content of the daily food above which the human body will fall ill (human body)
1 | O=[Se](O)O [selenite] | −0.740 Volt and −0.740 (acid environment) Volt |  | 
2 | [Se] [selenium] |  | 5 to 10 μg of selenium/g | more than 1 μg of selenium/g
